Reference: ChEMBL document CHEMBL3137667, “[Drug-induced liver injury; fourteenth updated edition of the bibliographic database of liver injuries and related drugs]” (Gastroenterol Clin Biol, 2004)

Columns and labels:
[1] = human
[2] = human; remark: listed apart in the source
[3] = human, serum
[4] = human, serum, 4383 h
[5] = human; remark: listed apart in the source
[6] = Highest frequency of moderate liver toxicity observed during clinical trials, expressed as a percentage. [column '% BIOL' in source]; conditions: human
[7] = human; remark: listed apart in the source
[8] = human; remark: listed apart in the source
[9] = human; remark: listed apart in the source
[10] = human, serum; remark: listed apart in the source
[11] = human; remark: listed apart in the source
[12] = Highest frequency of acute liver toxicity observed during clinical trials, expressed as a percentage. [column '% AIGUE' in source]; conditions: human
[13] = human; remark: listed apart in the source
[14] = human; remark: listed apart in the source
[15] = Proposed mechanism(s) of liver damage. [column 'MEC' in source]; conditions: human
[16] = Times to onset, minimal and maximal, observed in the indexed observations. [column 'DELAI' in source]; conditions: human
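Wherever Hepatotoxicity (association with vascular disease) is given: count of indexed literature references reporting vascular liver injury in humans, e.g. peliosis hepatitis, hepatic veno-occlusive disease or Budd-Chiari syndrome.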
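Wherever Hepatotoxicity (benign tumour) is given: value is a count of indexed literature references citing a benign tumour confirmed by histopathology.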
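Wherever Hepatotoxicity (choleostasis) is given: human cholestatic liver injury, shown by histopathology or by peak ALT or AST elevation over alkaline phosphatase ratio below 2, value counts indexed literature reports.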
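Wherever Hepatotoxicity (chronic liver disease) is given: chronic liver injury confirmed by histopathology or persistently raised serum aminotransferase activity beyond 6 months, value given as the count of indexed literature references.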
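Wherever Hepatotoxicity (cirrhosis) is given: value is a count of indexed literature references reporting cirrhosis confirmed by histopathology.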
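Wherever Hepatotoxicity (cytolytic) is given: human cytolytic liver injury, shown by histopathology or by a ratio above 5 of peak ALT or AST elevation to alkaline phosphatase elevation, value counts indexed references.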
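Wherever Hepatotoxicity (granulomatous hepatitis) is given: value is a count of indexed literature references reporting granulomatous liver disease confirmed by histopathology.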
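Wherever Hepatotoxicity (malignant tumour) is given: malignant tumour confirmed by histopathology, value gives the count of indexed literature references reporting it.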
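Wherever Hepatotoxicity (severe hepatitis) is given: human clinical data: severe hepatitis, meaning potentially life-threatening liver failure or clinically observed cases, the value counts how many indexed literature references report it.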
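Wherever Hepatotoxicity (steatosis) is given: steatosis confirmed by histopathology, value is the count of indexed references.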

Row | Compound | Hepatotoxicity (steatosis) [1] | Hepatotoxicity (granulomatous hepatitis) [2] | Hepatotoxicity (acute) [3] | Hepatotoxicity (chronic liver disease) [4] | Hepatotoxicity (severe hepatitis) [5] | Hepatotoxicity (moderate) [6] | Hepatotoxicity (association with vascular disease) [7] | Hepatotoxicity (cytolytic) [8] | Hepatotoxicity (malignant tumour) [9] | Hepatotoxicity (moderate) [10] | Hepatotoxicity (choleostasis) [11] | Hepatotoxicity (acute) [12] | Hepatotoxicity (benign tumour) [13] | Hepatotoxicity (cirrhosis) [14] | Hepatotoxicity (time to onset) [16] | also measured
1 | CN(Cc1cnc2nc(N)nc(N)c2n1)c1c(Cl)cc(C(=O)N[C@@H](CCC(=O)O)C(=O)O)cc1Cl | 0 | 0 | 0 | 0 | 0 | 16.7% | 0 | 0 | 0 | 2 | 0 | 0% | 0 | 0 | – | Hepatotoxicity (mechanism) [15]: Dose-dependant
2 | CCC1=C[C@@H]2CN(C1)Cc1c([nH]c3ccccc13)[C@@](C(=O)OC)(c1cc3c(cc1OC)N(C)[C@H]1[C@@](O)(C(=O)OC)[C@H](OC(C)=O)[C@]4(CC)C=CCN5CC[C@]31[C@@H]54)C2 [VINORELBINE] | 0 | 0 | 3 | 0 | 1 | 24.1% | 0 | 2 | 0 | 6 | 0 | 6% | 0 | 0 | 2 days - 10 days | –
3 | CCOC(Nc1ccc(C(=O)O)cc1)C(=O)c1ccc(-c2ccccc2)cc1 (stereo not given) [XENAZOIC ACID] | 0 | 0 | 2 | 0 | 0 | 0% | 0 | 0 | 0 | 0 | 0 | 0% | 0 | 0 | 1 week - 2 weeks | –
4 | Nc1ccn([C@H]2CC[C@@H](CO)O2)c(=O)n1 [ZALCITABINE] | 2 | – | 4 | 0 | – | – | 0 | – | 0 | 5 | – | – | 0 | 0 | 3 weeks - 10 months | Hepatotoxicity (granulomatous hepatitis) ([2]; Liver): 0; Hepatotoxicity (severe hepatitis) ([5]; Liver): 0; Hepatotoxicity (moderate) ([6]; Liver): 14.9%; Hepatotoxicity (cytolytic) ([8]; Liver): 3; Hepatotoxicity (choleostasis) ([11]; Liver): 0; Hepatotoxicity (acute) ([12]; Liver): 8.5%
5 | CC(=O)N[C@H]1[C@H]([C@H](O)[C@H](O)CO)OC(C(=O)O)=C[C@@H]1N=C(N)N [ZANAMIVIR] | 0 | 0 | 0 | 0 | 0 | 14.5% | 0 | 0 | 0 | 2 | 0 | 0% | 0 | 0 | 8 days | –
6 | CN1CCN(C(=O)OC2c3nccnc3C(=O)N2c2ccc(Cl)cn2)CC1 (stereo not given) [ZOPICLONE] | 0 | 0 | 1 | 0 | 0 | 0% | 0 | 1 | 0 | 0 | 1 | 0% | 0 | 0 | 6 months | –
7 | COLESTIPOL | 0 | 0 | 1 | 0 | 0 | 0.8% | 0 | 1 | 0 | 1 | 0 | 0% | 0 | 0 | 6 months | –
8 | DALTEPARIN SODIUM | 0 | 0 | 0 | 0 | 0 | 2.6% | 0 | 0 | 0 | 3 | 0 | 0% | 0 | 0 | 4 days | –
9 | IVERMECTIN | 0 | 0 | 0 | 0 | 0 | 23.3% | 0 | 0 | 0 | 5 | 0 | 0% | 0 | 0 | 2 days - 1 week | –
10 | MEGLUMINE ANTIMONATE | 0 | 0 | 1 | 0 | 0 | 6% | 0 | 0 | 0 | 3 | 0 | 0% | 0 | 0 | 6 hours - 6 days | –
11 | MUROMONAB-CD3 | 0 | 0 | 1 | 0 | 0 | 0% | 0 | 1 | 0 | 0 | 0 | 0% | 0 | 0 | 1 days | –
12 | SERRAPEPTASE | 0 | 1 | 1 | 0 | 0 | 0% | 0 | 0 | 0 | 0 | 0 | 0% | 0 | 0 | 2 days | –
13 | SPIRAMYCIN | 0 | 0 | 4 | 0 | 0 | 0% | 0 | 0 | 0 | 0 | 3 | 0% | 0 | 0 | 1 day - 4 weeks | –
14 | UROKINASE | 0 | 0 | 1 | 0 | 0 | 0% | 0 | 1 | 0 | 0 | 0 | 0% | 0 | 0 | 2 days | –
15 | [3-(8,8-Diethyl-2-aza-8-germa-spiro[4.5]dec-2-yl)-propyl]-dimethyl-amine | 0 | 0 | 2 | 0 | 0 | 27% | 0 | 0 | 0 | 6 | 0 | 6.5% | 0 | 0 | 8 weeks | –
